From patent US6426369B1, “Oxethazaine as antimicrobial agent” (Eisai Co., Ltd., priority 1997, dated 2002)

Test system: H. pylori
Assay: Antimicrobial activity test 6: oxethazaine in combination with an antibiotic (AMPC, CAM, RXM), checker board method
Type: cell-based, Helicobacter pylori
Design: key to growth of H. pylori: “−” indicates the inhibited growth of H. pylori (presence of antimicrobial activity); “+” indicates the growth of H. pylori (absence of antimicrobial activity)
Source text: The effect of combined use with amoxicillin (AMPC), clarithromycin (CAM) or roxithromycin (RXM) was examined in the same manner as in antimicrobial activity test 1, using the checker board method.

[1] = combined use with oxethazaine, out of 15 strains (AMPC), 21 strains (CAM), 22 strains (RXM)

Question: What does the source list for `CC[C@H]1OC(=O)[C@H](C)[C@@H](O[C@H]2C[C@@](C)(OC)[C@@H](O)[C@H](C)O2)[C@H](C)[C@@H](O[C@@H]2O[C@H](C)C[C@H](N(C)C)[C@H]2O)[C@](C)(OC)C[C@@H](C)C(=O)[C@H](C)[C@@H](O)[C@]1(C)O` [clarithromycin]?
Answer: growth of H. pylori (89-355, oxethazaine 0 + CAM 0.006 μg/ml): +; growth of H. pylori (89-355, oxethazaine 0 + CAM 0.012 μg/ml): +; growth of H. pylori (89-355, oxethazaine 0 + CAM 0.024 μg/ml): +; growth of H. pylori (89-355, oxethazaine 0 + CAM 0.05 μg/ml): +; growth of H. pylori (89-355, oxethazaine 0 + CAM 0.1 μg/ml): −; growth of H. pylori (89-355, oxethazaine 0 + CAM 0.2 μg/ml): −; growth of H. pylori (89-355, oxethazaine 0 + CAM 0.4 μg/ml): −; growth of H. pylori (89-355, oxethazaine 0 + CAM 0.8 μg/ml): −; growth of H. pylori (89-355, oxethazaine 0 + CAM 1.56 μg/ml): −; growth of H. pylori (89-355, oxethazaine 0 + CAM 3.13 μg/ml): −; growth of H. pylori (89-355, oxethazaine 0 + CAM 6.25 μg/ml): −; growth of H. pylori (89-355, oxethazaine 0 + CAM 12.5 μg/ml): −; growth of H. pylori (89-355, oxethazaine 0 + CAM 25 μg/ml): −; growth of H. pylori (89-355, oxethazaine 0 + CAM 50 μg/ml): −; growth of H. pylori (89-355, oxethazaine 0 + CAM 100 μg/ml): −; growth of H. pylori (89-357, oxethazaine 0 + CAM 0.006 μg/ml): +; growth of H. pylori (89-357, oxethazaine 0 + CAM 0.012 μg/ml): +; growth of H. pylori (89-357, oxethazaine 0 + CAM 0.024 μg/ml): +; growth of H. pylori (89-357, oxethazaine 0 + CAM 0.05 μg/ml): −; growth of H. pylori (89-357, oxethazaine 0 + CAM 0.1 μg/ml): −; growth of H. pylori (89-357, oxethazaine 0 + CAM 0.2 μg/ml): −; growth of H. pylori (89-357, oxethazaine 0 + CAM 0.4 μg/ml): −; growth of H. pylori (89-357, oxethazaine 0 + CAM 0.8 μg/ml): −; growth of H. pylori (89-357, oxethazaine 0 + CAM 1.56 μg/ml): −; growth of H. pylori (89-357, oxethazaine 0 + CAM 3.13 μg/ml): −; growth of H. pylori (89-357, oxethazaine 0 + CAM 6.25 μg/ml): −; growth of H. pylori (89-357, oxethazaine 0 + CAM 12.5 μg/ml): −; growth of H. pylori (89-357, oxethazaine 0 + CAM 25 μg/ml): −; growth of H. pylori (89-357, oxethazaine 0 + CAM 50 μg/ml): −; growth of H. pylori (89-357, oxethazaine 0 + CAM 100 μg/ml): −; growth of H. pylori (90-388, oxethazaine 0 + CAM 0.006 μg/ml): +; growth of H. pylori (90-388, oxethazaine 0 + CAM 0.012 μg/ml): +; growth of H. pylori (90-388, oxethazaine 0 + CAM 0.024 μg/ml): +; growth of H. pylori (90-388, oxethazaine 0 + CAM 0.05 μg/ml): +; growth of H. pylori (90-388, oxethazaine 0 + CAM 0.1 μg/ml): −; growth of H. pylori (90-388, oxethazaine 0 + CAM 0.2 μg/ml): −; growth of H. pylori (90-388, oxethazaine 0 + CAM 0.4 μg/ml): −; growth of H. pylori (90-388, oxethazaine 0 + CAM 0.8 μg/ml): −; growth of H. pylori (90-388, oxethazaine 0 + CAM 1.56 μg/ml): −; growth of H. pylori (90-388, oxethazaine 0 + CAM 3.13 μg/ml): −; growth of H. pylori (90-388, oxethazaine 0 + CAM 6.25 μg/ml): −; growth of H. pylori (90-388, oxethazaine 0 + CAM 12.5 μg/ml): −; growth of H. pylori (90-388, oxethazaine 0 + CAM 25 μg/ml): −; growth of H. pylori (90-388, oxethazaine 0 + CAM 50 μg/ml): −; growth of H. pylori (90-388, oxethazaine 0 + CAM 100 μg/ml): −; growth of H. pylori (90-390, oxethazaine 0 + CAM 0.006 μg/ml): +; growth of H. pylori (90-390, oxethazaine 0 + CAM 0.012 μg/ml): +; growth of H. pylori (90-390, oxethazaine 0 + CAM 0.024 μg/ml): +; growth of H. pylori (90-390, oxethazaine 0 + CAM 0.05 μg/ml): +; growth of H. pylori (90-390, oxethazaine 0 + CAM 0.1 μg/ml): −; growth of H. pylori (90-390, oxethazaine 0 + CAM 0.2 μg/ml): −; growth of H. pylori (90-390, oxethazaine 0 + CAM 0.4 μg/ml): −; growth of H. pylori (90-390, oxethazaine 0 + CAM 0.8 μg/ml): −; growth of H. pylori (90-390, oxethazaine 0 + CAM 1.56 μg/ml): −; growth of H. pylori (90-390, oxethazaine 0 + CAM 3.13 μg/ml): −; growth of H. pylori (90-390, oxethazaine 0 + CAM 6.25 μg/ml): −; growth of H. pylori (90-390, oxethazaine 0 + CAM 12.5 μg/ml): −; growth of H. pylori (90-390, oxethazaine 0 + CAM 25 μg/ml): −; growth of H. pylori (90-390, oxethazaine 0 + CAM 50 μg/ml): −; growth of H. pylori (90-390, oxethazaine 0 + CAM 100 μg/ml): −; growth of H. pylori (EH 12, oxethazaine 0 + CAM 0.006 μg/ml): +; growth of H. pylori (EH 12, oxethazaine 0 + CAM 0.012 μg/ml): +; growth of H. pylori (EH 12, oxethazaine 0 + CAM 0.024 μg/ml): +; growth of H. pylori (EH 12, oxethazaine 0 + CAM 0.05 μg/ml): −; growth of H. pylori (EH 12, oxethazaine 0 + CAM 0.1 μg/ml): −; growth of H. pylori (EH 12, oxethazaine 0 + CAM 0.2 μg/ml): −; growth of H. pylori (EH 12, oxethazaine 0 + CAM 0.4 μg/ml): −; growth of H. pylori (EH 12, oxethazaine 0 + CAM 0.8 μg/ml): −; growth of H. pylori (EH 12, oxethazaine 0 + CAM 1.56 μg/ml): −; growth of H. pylori (EH 12, oxethazaine 0 + CAM 3.13 μg/ml): −; growth of H. pylori (EH 12, oxethazaine 0 + CAM 6.25 μg/ml): −; growth of H. pylori (EH 12, oxethazaine 0 + CAM 12.5 μg/ml): −; growth of H. pylori (EH 12, oxethazaine 0 + CAM 25 μg/ml): −; growth of H. pylori (EH 12, oxethazaine 0 + CAM 50 μg/ml): −; growth of H. pylori (EH 12, oxethazaine 0 + CAM 100 μg/ml): −; growth of H. pylori (EH 13, oxethazaine 0 + CAM 0.006 μg/ml): +; growth of H. pylori (EH 13, oxethazaine 0 + CAM 0.012 μg/ml): +; growth of H. pylori (EH 13, oxethazaine 0 + CAM 0.024 μg/ml): −; growth of H. pylori (EH 13, oxethazaine 0 + CAM 0.05 μg/ml): −; growth of H. pylori (EH 13, oxethazaine 0 + CAM 0.1 μg/ml): −; growth of H. pylori (EH 13, oxethazaine 0 + CAM 0.2 μg/ml): −; growth of H. pylori (EH 13, oxethazaine 0 + CAM 0.4 μg/ml): −; growth of H. pylori (EH 13, oxethazaine 0 + CAM 0.8 μg/ml): −; growth of H. pylori (EH 13, oxethazaine 0 + CAM 1.56 μg/ml): −; growth of H. pylori (EH 13, oxethazaine 0 + CAM 3.13 μg/ml): −; growth of H. pylori (EH 13, oxethazaine 0 + CAM 6.25 μg/ml): −; growth of H. pylori (EH 13, oxethazaine 0 + CAM 12.5 μg/ml): −; growth of H. pylori (EH 13, oxethazaine 0 + CAM 25 μg/ml): −; growth of H. pylori (EH 13, oxethazaine 0 + CAM 50 μg/ml): −; growth of H. pylori (EH 13, oxethazaine 0 + CAM 100 μg/ml): −; additive effect, number of strains [1]: 17 strains/; synergism, number of strains [1]: 5 strains/; growth of H. pylori (strain 90-397, CAM 0.006 μg/ml, oxethazaine μg/ml: 100, 50, 25, 12.5, 6.25, 3.13, 0): +; growth of H. pylori (strain 90-397, CAM 0.012 μg/ml, oxethazaine μg/ml: 100, 50, 25, 12.5, 6.25, 3.13, 0): +; growth of H. pylori (strain 90-397, CAM 0.024 μg/ml, oxethazaine μg/ml: 100, 50, 25, 12.5, 6.25, 3.13, 0): +; growth of H. pylori (strain 90-397, CAM 0.05 μg/ml, oxethazaine μg/ml: 100, 50, 25, 12.5, 6.25, 3.13, 0): +; growth of H. pylori (strain 90-397, CAM 0.1 μg/ml, oxethazaine μg/ml: 100, 50, 25, 12.5, 6.25, 3.13, 0): +; growth of H. pylori (strain 90-397, CAM 0.2 μg/ml, oxethazaine μg/ml: 100, 50, 25, 12.5, 6.25, 3.13, 0): +; growth of H. pylori (strain 90-397, CAM 12.5 μg/ml, oxethazaine μg/ml: 100, 50, 25, 12.5, 6.25, 3.13, 0): −; growth of H. pylori (strain 90-397, CAM 25 μg/ml, oxethazaine μg/ml: 100, 50, 25, 12.5, 6.25, 3.13, 0): −; growth of H. pylori (strain 90-397, CAM 50 μg/ml, oxethazaine μg/ml: 100, 50, 25, 12.5, 6.25, 3.13, 0): −; growth of H. pylori (strain 90-397, CAM 100 μg/ml, oxethazaine μg/ml: 100, 50, 25, 12.5, 6.25, 3.13, 0): −
